Assay results: patent EP2803317B1, “MRI METHOD FOR MEASURING DIFFUSION PARAMETERS OF TRACER IN LIVING ORGAN TISSUE SPACE AND EXTRACELLULAR SPACE” (Peking University Third Hospital, priority 2012, dated 2013)

Assays:
[1] = MRI tracer method: distribution volume, distribution volume fraction and macro clearance of Gd-DTPA in the glioma brain; type: in vivo; conditions: glioma brain of the rat
Text: (§1) Calculation method about distribution volume (Vd), distribution volume fraction and general clearance of the tracer in the living organism is as follows: reconstructing the registered and subtracted images into axial images; quantitative measuring the signal increment region in image of each layer via the Matlab program as shown in figures; and recording the number of pixels in the increment region and the signal intensity value of each pixel. According to the integral principle, we can obtain the distribution volumes (Vd) of the tracer (Gd-DTPA) from different times in the brain hemisphere ECS via adding up the increment region of each layer. The distribution volume fraction of Gd-DTPA in the brain hemisphere ECS can be obtained by dividing the Vd from different times by the volume of the brain hemisphere of the rat. The macro clearance is defined as the total signal intensity at a previous time subtracting the total signal intensity at a later time, then dividing the initial total signal intensity.
Using the same method as used in the brain ECS, we can learn the time-varying change rule of distribution volume of the Gd-DTPA in the glioma brain of the rat. Table 9: the time-varying change rule of distribution volume of the Gd-DTPA in the glioma brain of the rat

[2] = MRI tracer method: diffusion parameters of Gd-DTPA in the glioma brain; type: in vivo; conditions: glioma brain of the rat
Text: Table 8: the diffusion parameter of Gd-DTPA in the glioma brain of the rat

[3] = MRI tracer method: diffusion parameters of Gd-DTPA in brain ECS of SD rats, fitted from time-series MRI images; type: in vivo; conditions: for λ: tortuosity
Experimental: (§2) A method for computing the physiological parameter in the living organism will be illustrated with the following embodiment. In the embodiment, Gadolinium-diethylenetriaminepentaacetic acid (Gd-DTPA) which is Mag-nevist solution produced by Bayer Schering Pharma AG was used as the tracer. The corresponding MRI signal intensities of the tracer with the actual concentration in agarose gel and rat brain were measured. Male Sprague Dawley rats weighing 250-300g were used in the experiment. The living organism used for measurement is the rat brain. A Siemens Magnetom Trio 3.0 T MRI system was used to obtain the rat brain images.
(§3) In this embodiment, the position of the injection site Q and the depth of Gd-DTPA microinjection of the rat brains were determined by three-dimensional reconstructed image basing on the brain stereotaxic atlas. The specific method was: preparing skin, shaving between the eyes of rats about 4cm skin backwards along the midline of the skull and exposing the skull plate; then fixing the rats in a stereotactic apparatus and administrating the drug at the injection site Q using magnetic drug delivery system; rubbing off the skull plate at the entry point with an electric drill, setting a micro syringe into the brain and manually administrating 2µLGd-DTPA solution with the concentration of 10mM into the target location in three injection with the interval of 5min. The syringe was left for 10 min in the brain when drug injection was finished before the micro syringe was exited and the skin was sutured. Scanned images were taken in 15min, 30min, 1h, 2h, 3h, 4h, 6h, 9h and 12h and imaging parameters were set as the mentioned above.
As shown in the FIG., the bias field is first to be correct to eliminate the signal strength deviation among the sequence of images; the image registration technique is then used to unify the position of the increment images with the referenced images; the diffusion model is finally solved via the distribution of the tracer concentration from different times obtained by the analysis of the signal strength increment.
Although the tortuosity varies in different directions and remains unchanged in the same direction in equation (5), the real tortuosity probably varies in the same direction. The space variability of the tortuosity should be determined to accurately describe the real diffusion process. The tortuosity of a point (x, y, z) in space is: λ = λ(x, y, z) [formula] or written in a polar coordinates: λ = λ(r, θ, φ) [formula] the diffusion model is changed to: (∂C)/(∂t) = (D)/(λ((x, y, z))^2)(∇)^2 C−(Q)/(α)−k′C [formula]
Although equation (10) fully considers the space variability of the tortuosity, the solution of equation (8) is difficult to get. The equation (8) is a partial differential formula with variable coefficients and usually has no analytic solution. The continuous problem can be turned into a discrete problem to solve the equation (10): ΔSI(t+Δt)−ΔSI(t) = (D)/(λ((x, y, z))^2)(∇)^2 (ΔSI) + (Q)/(α)k−k′ΔSI(t) + k′b [formula] wherein, Δt is the sampling time in each unit, [formula] Δi represents the space distance of sampling along the axis i. It depends on the space resolution of the image along the axis i.
For the discrete equation (11), the space tortuosity λ, the loss ratio k' and the part volume ratio α can be fit by the least squares method, i.e. the solution of the below optimization problem is required: [formula]
Write the equation (12) in a matrix form and get: min f(λ,α,k′) = ‖Ax−b‖2^2 [formula] wherein, the nonvanishing element in the line (x, y, z, t,:) of the matrix A is : ((∂)^2 ΔSI)/((∂)^2 r) + k−ΔSI + b [formula] the line (x, y, Z, t,) of the known vector b is: b(x,y,z,t,:) = ΔSI(t+Δt)−ΔSI(t) [formula] the substitution variable x is: x = ([(D)/(λ((x, y, z))^2),(Q)/(α),k′])^T [formula] […]

[4] = MRI tracer method: distribution volume, distribution volume fraction and macro clearance of Gd-DTPA in brain hemisphere ECS after injection in caudate nucleus; type: in vivo, SD rats; conditions: for Macro clearance: injection to the caudate nucleus of eight SD rats; for Distribution Volume Fraction: rat brain hemisphere; for Distribution Volume Fraction / Distribution Volume (Vd): after injection in caudate nucleus; for Distribution Volume (Vd): rat brain
Experimental: as §2, §3, §1
The selected region in the FIG. is obtained by subtracting the image before increment from the increment image. The increment region is shown as the "bright region" and the other un-increment region is shown as the "dark region". […] Using the bulleted method above can measure the Vd, the distribution volume fraction and the macro clearance of the caudate nucleus.

[5] = MRI tracer method: diffusion parameters of Gd-DTPA in the skeletal muscle gap; type: in vivo; conditions: rat skeletal muscle gap
Text: (§4) Although the above invention is for the brain ECS of the SD rat, the present invention is applicable to other the living organisms. […] The left high signal region adjacent to the femur is the Gd-DTPA's diffusion region after injection.

[6] = MRI tracer method: distribution volume and macro clearance of Gd-DTPA in the skeletal muscle gap; type: in vivo; conditions: rat skeletal muscle gap
Text: as §1, §4

[7] = SD rat brain, caudate putamen (CPu), Gd-DTPA 2µL, 10mM microinjection
[8] = SD rat brain, medial prefrontal cortex (mPFC), Gd-DTPA 2µL, 10mM microinjection
[9] = SD rat brain, occipital cortex (Oc), Gd-DTPA 2µL, 10mM microinjection
[10] = SD rat brain, substantianigra (SN), Gd-DTPA 2µL, 10mM microinjection
[11] = SD rat brain, thalamus (T), Gd-DTPA 2µL, 10mM microinjection
[12] = rats' caudate nucleus region, anisotropic, direction -X
[13] = rats' caudate nucleus region, anisotropic, direction -Y
[14] = rats' caudate nucleus region, anisotropic, direction -Z
[15] = rats' caudate nucleus region, anisotropic, direction X
[16] = rats' caudate nucleus region, anisotropic, direction Z

O=C([O-])CN(CCN(CC(=O)[O-])CC(=O)O)CCN(CC(=O)[O-])CC(=O)O.[Gd+3] [Gd-DTPA, Gadolinium-diethylenetriaminepentaacetic acid]
Macro clearances ([1]; time 0.5-1 h): 0.23 h⁻¹
Macro clearances ([1]; time 1-2 h): 0.36 h⁻¹
Macro clearances ([1]; time 2-3 h): 0.41 h⁻¹
Distribution Volume Fraction ([1]; time 0.25 h): 4.85%
Vd ([1]; time 0.25 h): 466 mm^3
Distribution Volume Fraction ([1]; time 0.5 h): 6.78%
Vd ([1]; time 0.5 h): 651 mm^3
Distribution Volume Fraction ([1]; time 1 h): 7.50%
Vd ([1]; time 1 h): 720 mm^3
Distribution Volume Fraction ([1]; time 2 h): 5.24%
Vd ([1]; time 2 h): 503 mm^3
Distribution Volume Fraction ([1]; time 3 h): 0%
Vd ([1]; time 3 h): 0 mm^3
k' ([2]; direction -X): 3.31 ×10^-4/mM·L^-1·s^-1
k' ([2]; direction -Y): 3.12 ×10^-4/mM·L^-1·s^-1
k' ([2]; direction -Z): 3.05 ×10^-4/mM·L^-1·s^-1
k' ([2]; direction X): 3.13 ×10^-4/mM·L^-1·s^-1
k' ([2]; direction Z): 3.15 ×10^-4/mM·L^-1·s^-1
D^∗ [3, 7]: 3.38 ×10^-4/mm^2·s^-1
k' [3, 7]: 0.76 ×^10-4/mM· L^-1· s^-1
D^∗ [3, 8]: 2.31 ×10^-4/mm^2·s^-1
k' [3, 8]: 2.38 ×^10-4/mM· L^-1· s^-1
D^∗ [3, 9]: 3.25 ×10^-4/mm^2·s^-1
k' [3, 9]: 1.55 ×^10-4/mM· L^-1· s^-1
D^∗ [3, 10]: 2.06 ×10^-4/mm^2·s^-1
k' [3, 10]: 8.28 ×^10-4/mM· L^-1· s^-1
D^∗ [3, 11]: 3.28 ×10^-4/mm^2·s^-1
k' [3, 11]: 1.44 ×^10-4/mM· L^-1· s^-1
D^∗ [3, 12]: 3.57 ± 0.88 ×10^-4/mm^2·s^-1
k' [3, 12]: 7.14 ± 3.06 ×10^-5/mM·L^-1·s^-1
D^∗ [3, 13]: 3.05 ± 0.93 ×10^-4/mm^2·s^-1
k' [3, 13]: 7.59 ± 4.04 ×10^-5/mM·L^-1·s^-1
D^∗ [3, 14]: 4.01 ± 0.60 ×10^-4/mm^2·s^-1
k' [3, 14]: 7.88 ± 6.24 ×10^-5/mM·L^-1·s^-1
D^∗ [3, 15]: 3.73 ± 1.10 ×10^-4/mm^2·s^-1
k' [3, 15]: 7.67 ± 3.96 ×10^-5/mM·L^-1·s^-1
D^∗ [3, 16]: 2.54 ± 1.27 ×10^-4/mm^2·s^-1
k' [3, 16]: 7.74 ± 4.07 ×10^-5/mM·L^-1·s^-1
λ ([3]; SD rat brain, caudate putamen (CPu)): 1.24
λ ([3]; SD rat brain, medial prefrontal cortex (mPFC)): 1.50
λ ([3]; SD rat brain, occipital cortex (Oc)): 1.26
λ ([3]; SD rat brain, substantianigra (SN)): 1.59
λ ([3]; SD rat brain, thalamus (T)): 1.26
Macro clearance ([4]; time 1-2 h): 0.23 h⁻¹
Macro clearance ([4]; time 2-3 h): 0.12 h⁻¹
Macro clearance ([4]; time 3-4 h): 0.19 h⁻¹
Macro clearance ([4]; time 4-6 h): 0.11 h⁻¹
Macro clearance ([4]; time 6-9 h): 0.06 h⁻¹
Macro clearance ([4]; time 9-12 h): 0.08 h⁻¹
Distribution Volume Fraction ([4]; time 1 h): 7.55%
Distribution Volume Fraction ([4]; time 2 h): 9.48%
Distribution Volume Fraction ([4]; time 3 h): 9.45%
Distribution Volume Fraction ([4]; time 4 h): 8.20%
Distribution Volume Fraction ([4]; time 6 h): 6.96%
Distribution Volume Fraction ([4]; time 9 h): 4.29%
Distribution Volume Fraction ([4]; time 12 h): 1.33%
Distribution Volume (Vd) ([4]; time 1 h): 724.75 mm^3
Distribution Volume (Vd) ([4]; time 2 h): 910.50 mm^3
Distribution Volume (Vd) ([4]; time 3 h): 907.25 mm^3
Distribution Volume (Vd) ([4]; time 4 h): 787.57 mm^3
Distribution Volume (Vd) ([4]; time 6 h): 668.50 mm^3
Distribution Volume (Vd) ([4]; time 9 h): 411.57 mm^3
Distribution Volume (Vd) ([4]; time 12 h): 128.13 mm^3
D^∗ ([5]; direction -X): 2.611 ×10^-4/mm^2·s^-1
k' ([5]; direction -X): 2.359 ×10^-4/mM·L^-1·s^-1
D^∗ ([5]; direction -Y): 8.235 ×10^-4/mm^2·s^-1
k' ([5]; direction -Y): 10.940 ×10^-4/mM·L^-1·s^-1
D^∗ ([5]; direction -Z): 7.154 ×10^-4/mm^2·s^-1
k' ([5]; direction -Z): 5.083 ×10^-4/mM·L^-1·s^-1
D^∗ ([5]; direction X): 2.930 ×10^-4/mm^2·s^-1
k' ([5]; direction X): 2.870 ×10^-4/mM·L^-1·s^-1
D^∗ ([5]; direction Z): 9.537 ×10^-4/mm^2·s^-1
k' ([5]; direction Z): 7.817 ×10^-4/mM·L^-1·s^-1
Vd ([6]; time 5 min): 407 mm^3
Vd ([6]; time 10 min): 383 mm^3
Vd ([6]; time 15 min): 234 mm^3
Vd ([6]; time 25 min): 0 mm^3
Macro clearance ([6]; time(h) 5-10): 0.28 h⁻¹
Macro clearance ([6]; time(h) 10-15): 0.36 h⁻¹
Macro clearance ([6]; time(h) 15-25): 0.36 h⁻¹
